In patent US20220195383A1, “METHOD FOR PRODUCING PLURIPOTENT STEM CELLS” (KANEKA CORPORATION, priority 2019, published 2022):

Experiments:
[1] = test system: human iPS cell line RPChiPS771-2; assay: Quantitative real-time PCR of marker genes after suspension culture with IWP-2; assay type: cell-based; details: IWP-2 2 μM, line RPChiPS771-2, day 10 (Example 2)
WNT3A protein [2] = assay: ELISA analysis of WNT3A protein in culture supernatant, suspension culture with IWP-2, line RPChiPS771-2; assay type: cell-based, human; details: IWP-2 2 μM, line RPChiPS771-2, day 5 (Example 2)
WNT3A protein [3] = assay: ELISA analysis of WNT3A protein in culture supernatant, suspension culture with IWP-2, line 201B7; assay type: cell-based, human; details: IWP-2 2 μM, line 201B7, day 5 (Example 1)
Protocol: A reagent and a reaction plate attached to a WNT3A ELISA kit (Aviva Systems Biology Corporation) were returned to room temperature. A vial of WNT3A Standard attached to the kit was subjected to centrifugal separation, and a powder in the vial was collected. After adding 1 mL of a diluent solution attached to the kit and mixing, the mixture was left to stand at room temperature for 15 minutes to prepare a WNT3A solution at a final concentration of 10 ng/mL. Based on the WNT3A solution at a final concentration of 10 ng/mL, the solution was diluted with the diluent solution attached to the kit to create WNT3A solution dilution series at final concentrations of 0.156 ng/mL, 0.313 ng/mL, 0.625 ng/mL, 1.25 ng/mL, 2.5 ng/mL, and 5 ng/mL. The dilution series of 0.156 ng/mL to 10 ng/mL and the culture supernatant on day 5 of the culture were added to the reaction plate at 100 μL/well, and a plate seal was attached. […]
Absorbance was measured at 450 nm (corrected wavelength 540 nm) using SpectraMax i3x Multi-Mode Detection Platform (Molecular Devices, LLC.), and a concentration of the WNT3A protein contained in the medium was calculated. Furthermore, an amount of the WNT3A protein of cells (pg/10^4 cells) was calculated from the results of measuring the number of living cells on day 5 of the culture according to the following equation. […]

[4] = test system: human iPS cell line 201B7; assay: Quantitative real-time PCR of marker genes after suspension culture with IWP-2; assay type: cell-based; details: IWP-2 2 μM, line 201B7, day 10 (Example 1)
Protocol: Cells on day 10 of the culture were treated with Accutase for 3 to 10 minutes and dispersed into single cells by pipetting. These cells were lysed using TRIzol™ Reagent (Thermo Fisher Scientific K.K.). Total RNA was isolated and purified from a cell solution obtained by lysing with TRIzol™ Reagent using a PureLink (registered trademark) RNA Mini kit (Thermo Fisher Scientific K.K.). A concentration of the purified RNA was measured using BioSpec-nano (Shimadzu Corporation), and 40 ng was separated. 2 μL of ReverTra Ace (registered trademark) qPCR RT Master Mix (TOYOBO CO., LTD.) and RNase Free dH2O were added to the separated RNA to prepare 10 μL. cDNA synthesis was performed using SimpliAmp Thermal Cycler (Thermo Fisher Scientific K.K.). […] A synthesized cDNA solution was diluted 100-fold with 10 mM Tris-HCl pH 8.0 (NACALAI TESQUE, INC.) and added to a 384-well PCR plate (Thermo Fisher Scientific K.K.) at 5 μL/well. KOD SYBR® qPCR Mix (TOYOBO CO., LTD.), a Forward primer prepared to 50 μM, a Reverse primer prepared to 50 μM, and DEPC-treated water (NACALAI TESQUE, INC.) were mixed at a ratio of 100:1:1:48. This mixed solution was added to the above-mentioned 384-well PCR plate at 15 μL/well and mixed. For the primers, bACT, OCT4, SOX2, Nanog, Brachyury, and SOX17 were used. The 384-well PCR plate was subjected to centrifugal separation to remove air bubbles in the wells, and quantitative real-time PCR analysis was performed using QuantStudio 7 Flex Real-Time PCR System (Thermo Fisher Scientific K.K.).
Suspension culture was performed under a condition in which an amount of WNT protein contained in a unit of a medium in contact with a unit area of a cell surface was maintained at 2.9×10^2 μg/mL·cm^2 or less. Specifically, the human iPS cell line 201B7 maintenance-cultured by the method in Step 1 of Example 1 was treated with Accutase for 3 to 5 minutes to release the cells from the dish. The cells were dispersed into single cells by pipetting. These cells were suspended in a StemFit (registered trademark) AK02N medium containing Y-27632 at a final concentration of 10 μM. A part of the cells was stained with trypan blue to measure the number of living cells. A cell suspension was prepared so that it contained 2×10^5 cells per mL using the StemFit (registered trademark) AK02N medium containing Y-27632 a final concentration of 10 μM. 4 mL of the cell suspension per well was seeded in a 6-well plate for suspension culture (Sumitomo Bakelite Co., Ltd.). IWP-2 (FUJIFILM Wako Pure Chemical Corporation), which is a WNT protein secretion inhibitor, was added to the seeded wells so that a final concentration was 2 μM. The plate in which the cells were seeded was gyrated on a rotary shaker (Optima Instruments) at a speed of 83 rpm so that a gyrating width (diameter) drew a circle of 25 mm along a horizontal plane, and suspension culture was performed at 37° C. in a 5% CO2 environment. The day when the cells were seeded was defined as day 0 of the culture. Passage was performed on day 5 of the culture, and suspension culture was performed until day 10 of the culture. Medium exchange was performed as follows. A total amount of the medium containing cell aggregates was recovered in a centrifuge tube and left to stand for about 5 minutes to precipitate the cell aggregates. Thereafter, the culture supernatant was removed. […]

SMILES: Cc1ccc2nc(NC(=O)CSc3nc4c(c(=O)n3-c3ccccc3)SCC4)sc2c1 [IWP-2]
- Relative gene expression level with respect to ACTB in 2 ^∧ Ct, Nanog [1]: 8.16 × 10^−1
- Relative gene expression level with respect to ACTB in 2 ^∧ Ct, OCT4 [1]: 5.72 × 10^−1
- Relative gene expression level with respect to ACTB in 2 ^∧ Ct, SOX2 [1]: 2.31 × 10^−2
- Relative gene expression level with respect to ACTB in 2 ^∧ Ct, Brachyury ([1]; dash = not detected): not detected
- Relative gene expression level with respect to ACTB in 2 ^∧ Ct, SOX17 ([1]; dash = not detected): not detected
- Concentration of WNT3A protein contained in medium (WNT3A protein [2]): 53.3 pg/mL
- Amount of WNT3A protein contained in unit of medium in contact with unit area of cell surface, average value (n = 10) (WNT3A protein [3]): 2.7 × 10^2 μg/mL · cm^2
- Concentration of WNT3A protein contained in medium (WNT3A protein [3]): 83.9 pg/mL
- Relative gene expression level with respect to ACTB in 2 ^∧ Ct, Nanog [4]: 1.30 × 10^−2
- Relative gene expression level with respect to ACTB in 2 ^∧ Ct, OCT4 [4]: 1.77 × 10^−1
- Relative gene expression level with respect to ACTB in 2 ^∧ Ct, SOX2 [4]: 2.83 × 10^−2
- Relative gene expression level with respect to ACTB in 2 ^∧ Ct, Brachyury ([4]; dash = not detected): not detected
- Relative gene expression level with respect to ACTB in 2 ^∧ Ct, SOX17 ([4]; dash = not detected): not detected
